Measured values published in patent US20100130737A1, “Regulating Agent of GPR34 Receptor Function” (TAKEDA PHARMACEUTICAL COMPANY LIMITED, priority 2005, published 2010).

melting point [°C]	SMILES
209 to 210	Cc1nc(COc2ccc(CC(=O)NC3(C(=O)O)Cc4ccc(-c5ccc(Cl)cc5)cc4C3)cc2)cs1 (stereo not shown) [Example B152]
204 to 205	O=C(Cc1ccc(OCc2c(Cl)cccc2Cl)cc1)NC1(C(=O)O)Cc2ccc(-c3ccc(Cl)cc3)cc2C1 (stereo not shown) [Example B153]
194 to 195	O=C(Cc1ccc(OC2CCc3ccccc32)cc1)NC1(C(=O)O)Cc2ccc(-c3ccc(Cl)cc3)cc2C1 (stereo not shown) [Example B154, 5-(4-Chlorophenyl)-2-({[4-(2,3-dihydro-1H-inden-1-yloxy)phenyl]acetyl)amino)indan-2-carboxylic acid]
233 to 234	O=C(Cc1ccc(OC2Cc3ccccc3C2)cc1)NC1(C(=O)O)Cc2ccc(-c3ccc(Cl)cc3)cc2C1 (stereo not shown) [Example B155, 5-(4-Chlorophenyl)-2-({[4-(2,3-dihydro-1H-inden-2-yloxy)phenyl]acetyl}amino)indan-2-carboxylic acid]
187 to 189	Cc1nc(COc2ccc(CC(=O)NC3(C(=O)O)Cc4ccc(-c5ccc(Cl)cc5)cc4C3)cc2)co1 (stereo not shown) [Example B156, 5-(4-Chlorophenyl)-2-[({4-[(2-methyl-1,3-oxazol-4-yl)methoxy]phenyl}acetyl)amino]indan-2-carboxylic acid]
258 to 259	Cc1nc2ccccc2n1Cc1ccc(C(=O)NC2(C(=O)O)Cc3ccc(-c4ccc(Cl)cc4)cc3C2)cc1 (stereo not shown) [Example B157, 5-(4-Chlorophenyl)-2-({4-[(2-methyl-1H-benzimidazol-1-yl)methyl]benzoyl}amino)indan-2-carboxylic acid]
241 to 243	O=C(Cc1ccc(Oc2nc3ccccc3s2)cc1)NC1(C(=O)O)Cc2ccc(-c3ccc(Cl)cc3)cc2C1 (stereo not shown) [Example B158, 2-({[4-(1,3-Benzothiazol-2-yloxy)phenyl]acetyl}amino)-5-(4-chlorophenyl)indan-2-carboxylic acid]
210 to 212	Cc1cccc(C)c1-c1ccc2c(c1)CC(NC(=O)Cc1ccc(OCc3ccc(F)cc3)cc1)(C(=O)O)C2 (stereo not shown) [Example B160, 5-(2,6-Dimethylphenyl)-2-[({4-[(4-fluorobenzyl)oxy]phenyl}acetyl)amino]indan-2-carboxylic acid]
232 to 234	O=C(Cc1ccc(Oc2ccc(F)cc2)cc1)NC1(C(=O)O)Cc2ccc(-c3ccc(Cl)cc3)cc2C1 (stereo not shown) [Example B161, 5-(4-Chlorophenyl)-2-({[4-(4-fluorophenoxy)phenyl]acetyl}amino)indan-2-carboxylic acid]
188 to 190	O=C(Cc1ccc(NCc2ccc(F)cc2)cc1)NC1(C(=O)O)Cc2ccc(-c3ccc(Cl)cc3)cc2C1 (stereo not shown) [Example B162, 5-(4-Chlorophenyl)-2-[({4-[(4-fluorobenzyl)amino]phenyl}acetyl)amino]indan-2-carboxylic acid]
128	O=C(Cc1ccc(OCc2ccncc2)cc1)NC1(C(=O)O)Cc2ccc(-c3ccc(Cl)cc3)cc2C1 (stereo not shown) [Example B163, 5-(4-Chlorophenyl)-2-({[4-(pyridin-4-ylmethoxy)phenyl]acetyl}amino)indan-2-carboxylic acid]
226 to 228	O=C(Cc1ccc(Oc2ccsc2)cc1)NC1(C(=O)O)Cc2ccc(-c3ccc(Cl)cc3)cc2C1 (stereo not shown) [Example B164, 5-(4-Chlorophenyl)-2-({[4-(3-thienyloxy)phenyl]acetyl}amino)indan-2-carboxylic acid]
200 to 201	Cc1noc(C)c1COc1ccc(CC(=O)NC2(C(=O)O)Cc3ccc(-c4ccc(Cl)cc4)cc3C2)cc1 (stereo not shown) [Example B165]

More lines, now with the values behind:

SMILES	melting point [°C]
O=C(Cc1ccc(Cl)cc1)NC1(C(=O)O)Cc2ccc(-c3ccc(Cl)cc3)cc2C1 (stereo not shown) [Example B127, 5-(4-Chlorophenyl)-2-{[(4-chlorophenyl)acetyl]amino}indan-2-carboxylic acid]	251
O=C(CN1CCN(C(c2ccc(F)cc2)c2ccc(F)cc2)CC1)NC1(C(=O)O)Cc2ccc(-c3ccc(Cl)cc3)cc2C1 (stereo not shown) [Example B128, 2-[({4-[bis(4-Fluorophenyl)methyl]piperazine-1-yl)acetyl)amino]-5-(4-chlorophenyl)indan-2-carboxylic acid]	184
Cc1c(C(=O)NC2(C(=O)O)Cc3ccc(-c4ccc(Cl)cc4)cc3C2)oc2cc(-c3ccc(Cl)cc3)ccc12 (stereo not shown) [Example B129, 5-(4-Chlorophenyl)-2-({[6-(4-chlorophenyl)-3-methyl-1-benzofuran-2-yl]carbonyl}amino)indan-2-carboxylic acid]	257
O=C(O)C1(NS(=O)(=O)Cc2ccc(F)cc2)Cc2ccc(-c3ccc(Cl)cc3)cc2C1 (stereo not shown) [Example B130, 5-(4-Chlorophenyl)-2-{[(4-fluorobenzyl)sulfonyl]amino}indan-2-carboxylic acid]	210 to 213
COc1ccc(-c2ccc3c(c2)CC(NC(=O)Cc2ccc(F)cc2)(C(=O)O)C3)cc1 (stereo not shown) [Example B131, 2-{[(4-Fluorophenyl)acetyl]amino}-5-(4-methoxyphenyl)indan-2-carboxylic acid]	227
O=C(CCc1ccc(F)cc1)NC1(C(=O)O)Cc2ccc(-c3ccc(Cl)cc3)cc2C1 (stereo not shown) [Example B132, 5-(4-Chlorophenyl)-2-{[3-(4-fluorophenyl)propanoyl]amino}indan-2-carboxylic acid]	220
O=C(NC1(C(=O)O)Cc2ccc(-c3ccc(Cl)cc3)cc2C1)c1ccc(F)cc1 (stereo not shown) [Example B133, 5-(4-Chlorophenyl)-2-[(4-fluorobenzoyl)amino]indan-2-carboxylic acid]	251
CS(=O)(=O)c1ccc(CC(=O)NC2(C(=O)O)Cc3ccc(-c4ccc(Cl)cc4)cc3C2)cc1 (stereo not shown) [Example B135, 5-(4-Chlorophenyl)-2-({[4-(methylsulfonyl)phenyl]acetyl}amino)indan-2-carboxylic acid]	216
O=C(Cc1ccccc1Cl)NC1(C(=O)O)Cc2ccc(-c3ccc(Cl)cc3)cc2C1 (stereo not shown) [Example B136, 5-(4-Chlorophenyl)-2-{[(2-chlorophenyl)acetyl]amino}indan-2-carboxylic acid]	222
O=C(NC1(C(=O)O)Cc2ccc(-c3ccc(Cl)cc3)cc2C1)c1ccc2ncsc2c1 (stereo not shown) [Example B137, 2-[(1,3-Benzothiazol-6-ylcarbonyl)amino]-5-(4-chlorophenyl)indan-2-carboxylic acid]	210
O=C(Cc1cccc(Cl)c1)NC1(C(=O)O)Cc2ccc(-c3ccc(Cl)cc3)cc2C1 (stereo not shown) [Example B138, 5-(4-Chlorophenyl)-2-{[(3-chlorophenyl)acetyl]amino}indan-2-carboxylic acid]	234
CC(C(=O)NC1(C(=O)O)Cc2ccc(-c3ccc(Cl)cc3)cc2C1)c1ccccc1 (stereo not shown) [Example B139, 5-(4-Chlorophenyl)-2-[(2-phenylpropanoyl)amino]indan-2-carboxylic acid]	200 to 201
O=C(Cc1ccc(NC(=O)c2ccc(F)cc2)cc1)NC1(C(=O)O)Cc2ccc(-c3ccc(Cl)cc3)cc2C1 (stereo not shown) [Example B140, 5-(4-Chlorophenyl)-2-[({4-[(4-fluorobenzoyl)amino]phenyl}acetyl)amino]indan-2-carboxylic acid]	252 to 254
O=C(Cc1ccc(OCc2ccccc2F)cc1)NC1(C(=O)O)Cc2ccc(-c3ccc(Cl)cc3)cc2C1 (stereo not shown) [Example B141, 5-(4-Chlorophenyl)-2-[({4-[(2-fluorobenzyl)oxy]phenyl}acetyl)amino]indan-2-carboxylic acid]	232 to 233
O=C(Cc1ccc(OCc2cccc(F)c2)cc1)NC1(C(=O)O)Cc2ccc(-c3ccc(Cl)cc3)cc2C1 (stereo not shown) [Example B142]	209
O=C(Cc1ccc(OCc2ccc(Cl)cc2)cc1)NC1(C(=O)O)Cc2ccc(-c3ccc(Cl)cc3)cc2C1 (stereo not shown) [Example B143, 2-[({4-[(4-Chlorobenzyl)oxy]phenyl}acetyl)amino]-5-(4-chlorophenyl)indan-2-carboxylic acid]	230 to 232
O=C(Cc1ccc(OCc2ccc(F)cc2Cl)cc1)NC1(C(=O)O)Cc2ccc(-c3ccc(Cl)cc3)cc2C1 (stereo not shown) [Example B144, 2-[({4-[(2-Chloro-4-fluorobenzyl)oxy]phenyl}acetyl)amino]-5-(4-chlorophenyl)indan-2-carboxylic acid]	200 to 201
O=C(Cc1ccc(OCc2ccc(C(F)(F)F)cc2)cc1)NC1(C(=O)O)Cc2ccc(-c3ccc(Cl)cc3)cc2C1 (stereo not shown) [Example B145, 5-(4-Chlorophenyl)-2-{[(4-{[4-(trifluoromethyl)benzyl]oxy}phenyl)acetyl]amino)indan-2-carboxylic acid]	237 to 238
O=C(Cc1ccc(OCc2ccoc2)cc1)NC1(C(=O)O)Cc2ccc(-c3ccc(Cl)cc3)cc2C1 (stereo not shown) [Example B146, 5-(4-Chlorophenyl)-2-({[4-(3-furylmethoxy)phenyl]acetyl}amino)indan-2-carboxylic acid]	200 to 202
O=C(Cc1ccc(OCc2ccsc2)cc1)NC1(C(=O)O)Cc2ccc(-c3ccc(Cl)cc3)cc2C1 (stereo not shown) [Example B147, 5-(4-Chlorophenyl)-2-({[4-(3-thienylmethoxy)phenyl]acetyl}amino)indan-2-carboxylic acid]	224 to 226
O=C(O)CNC(=O)C1(NC(=O)Cc2ccc(OCc3ccccc3)cc2)Cc2ccc(-c3ccc(Cl)cc3)cc2C1 (stereo not shown) [Example B148, N-{[2-({[4-(Benzyloxy)phenyl]acetyl)amino)-5-(4-chlorophenyl)-2,3-dihydro-1H-inden-2-yl]carbonyl}glycine]	217 to 218
O=C(O)CNC(=O)C1(NC(=O)Cc2ccc(OCc3ccc(F)cc3)cc2)Cc2ccc(-c3ccc(Cl)cc3)cc2C1 (stereo not shown) [Example B149, N-({5-(4-Chlorophenyl)-2-[({4-[(4-fluorobenzyl)oxy]phenyl}acetyl)amino]-2,3-dihydro-1H-inden-2-yl}carbonyl)glycine]	209 to 210
O=C(O)CCNC(=O)C1(NC(=O)Cc2ccc(OCc3ccc(F)cc3)cc2)Cc2ccc(-c3ccc(Cl)cc3)cc2C1 (stereo not shown) [Example B150, N-({5-(4-Chlorophenyl)-2-[({4-[(4-fluorobenzyl)oxy]phenyl}acetyl)amino]-2,3-dihydro-1H-inden-2-yl)carbonyl)-O-alanine]	214
O=C(Cc1ccc(OCc2cccs2)cc1)NC1(C(=O)O)Cc2ccc(-c3ccc(Cl)cc3)cc2C1 (stereo not shown) [Example B151, 5-(4-Chlorophenyl)-2-({[4-(2-thienylmethoxy)phenyl]acetyl}amino)indan-2-carboxylic acid]	201
